In patent publication US9399636B2, “Substituted dipyridylamines and uses thereof” (Genentech, Inc., priority 2012, dated 2016):

The molecules below were run against T1, DLK (Homo sapiens, UniProt Q12852) (assay: DLK TR-FRET assay). Conditions: 5 nM GST-tagged DLK (catalytic domain amino acid 1-520), 40 nM HIS-tagged MKK4 K131M substrate, 30 μM ATP, 60 minutes.
T1 construct: N-terminally GST-tagged DLK (catalytic domain amino acid 1-520) (Carna Bioscience); GST (N); purchased Carna Bioscience
T1 sequence (Q12852 1-520): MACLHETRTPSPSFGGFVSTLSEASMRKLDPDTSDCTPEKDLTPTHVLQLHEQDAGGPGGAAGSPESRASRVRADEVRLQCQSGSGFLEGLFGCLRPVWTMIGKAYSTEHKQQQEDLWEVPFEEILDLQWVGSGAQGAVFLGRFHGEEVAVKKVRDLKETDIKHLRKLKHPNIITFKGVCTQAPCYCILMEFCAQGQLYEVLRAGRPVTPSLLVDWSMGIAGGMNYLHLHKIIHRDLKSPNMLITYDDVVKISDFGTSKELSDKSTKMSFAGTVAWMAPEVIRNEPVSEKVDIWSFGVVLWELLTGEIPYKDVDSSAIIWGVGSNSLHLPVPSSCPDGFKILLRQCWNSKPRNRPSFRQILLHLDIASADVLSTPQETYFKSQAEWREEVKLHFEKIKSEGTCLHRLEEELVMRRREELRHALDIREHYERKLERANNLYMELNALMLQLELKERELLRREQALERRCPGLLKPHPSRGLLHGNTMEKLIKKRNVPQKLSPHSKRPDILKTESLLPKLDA
Assay type: biochemical
Method in brief: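 5 nM GST-tagged DLK catalytic domain (aa 1-520) with 40 nM HIS-MKK4 K131M substrate and 30 μM ATP in HEPES pH 7.5/MgCl2 buffer. Compounds tested in 1:3 serial dilution from 20 uM, 60 min at ambient temperature. EDTA quench, then 3 h with Eu-anti-phospho-MKK4 and D2-anti-HIS before TR-FRET read (665/615 nm).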

SMILES | Ki [nM]
CC(=O)N1CCC(c2cc(Nc3cc(C#N)ccn3)nc(C3CC3)c2)CC1 [Example 59, 2-(1′-Acetyl-6-cyclopropyl-1′,2′,3′,4′,5′,6′-hexahydro-[4,4′]bipyridinyl-2-ylamino)-isonicotinonitrile] | 1.5
COC1CN(c2cc(C3(C#N)CCNCC3)cc(Nc3cc(C(F)(F)F)ccn3)n2)C1 [Example 19, 6′-(3-Methoxy-azetidin-1-yl)-2′-(4-trifluoromethyl-pyridin-2-ylamino)-2,3,5,6-tetrahydro-1H-[4,4′]bipyridinyl-4-carbonitrile] | 5.1
N#Cc1ccnc(Nc2cc(C3(C#N)CCOCC3)cc(N3CC4CC4C3)n2)c1 (stereo not drawn) [Example 67, 2-[6-(3-Aza-bicyclo[3.1.0]hex-3-yl)-4-(4-cyano-tetrahydro-pyran-4-yl)-pyridin-2-ylamino]-isonicotinonitrile] | 0.4
N#Cc1ccnc(Nc2cc(C3CCOCC3)cc(N3CC4CC3C4)n2)c1 [Example 81, 2-[6-(2-Aza-bicyclo[2.1.1]hex-2-yl)-4-(tetrahydro-pyran-4-yl)-pyridin-2-ylamino]-isonicotinonitrile] | 11.4
FC1(F)CCN(c2cc(C3CN(C4COC4)C3)cc(Nc3cc(C(F)(F)F)ccn3)n2)C1 [Example 117, [6-(3,3-Difluoro-pyrrolidin-1-yl)-4-(1-oxetan-3-yl-azetidin-3-yl)-pyridin-2-yl]-(4-trifluoromethyl-pyridin-2-yl)-amine] | 0.94
N#Cc1ccnc(Nc2cc(C3(C#N)CCOCC3)cc(N3CCC3)n2)c1 [Example 75, 2-[6-Azetidin-1-yl-4-(4-cyano-tetrahydro-pyran-4-yl)-pyridin-2-ylamino]-isonicotinonitrile] | 13
N#Cc1ccnc(Nc2cc(C3CCN(C4COC4)CC3)cc(N3CC4CC3C4)n2)c1 [Example 90, 2-[6-(2-Aza-bicyclo[2.1.1]hex-2-yl)-1′-oxetan-3-yl-1′,2′,3′,4′,5′,6′-hexahydro-[4,4′]bipyridinyl-2-ylamino]-isonicotinonitrile] | 1.9
N#Cc1ccnc(Nc2cc(C3CCN(C4COC4)CC3)cc(C3CC3)n2)c1 [Example 28, 2-(6-Cyclopropyl-1′-oxetan-3-yl-1′,2′,3′,4′,5′,6′-hexahydro-[4,4′]bipyridinyl-2-ylamino)-isonicotinonitrile] | 1.4
N#Cc1ccnc(Nc2cc(C3CCOCC3)cc(N3CC4CC(F)(F)C4C3)n2)c1 (stereo not drawn) [Example 100, 2-[6-(6,6-Difluoro-3-aza-bicyclo[3.2.0]hept-3-yl)-4-(tetrahydro-pyran-4-yl)-pyridin-2-ylamino]-isonicotinonitrile] | 11
O=C([C@@H]1CCCCN1)N1CCC(c2ccnc(Nc3ccccn3)c2)CC1 [Example 146, (S)-piperidin-2-yl(4-(2-(pyridin-2-ylamino)pyridin-4-yl)piperidin-1-yl)methanone] | 2100
N#Cc1ccnc(Nc2cc(C3(C#N)CCOCC3)cc(N3CCCC3=O)n2)c1 [Example 47, 2-[4-(4-Cyano-tetrahydro-pyran-4-yl)-6-(2-oxo-pyrrolidin-1-yl)-pyridin-2-ylamino]-isonicotinonitrile] | 40
CCc1cc(C2CCN(C3COC3)CC2)cc(Nc2cc(C(F)F)ccn2)n1 [Example 26, (4-Difluoromethyl-pyridin-2-yl)-(6-ethyl-1′-oxetan-3-yl-1′,2′,3′,4′,5′,6′-hexahydro-[4,4′]bipyridinyl-2-yl)-amine] | 21
